Source: ChEMBL document CHEMBL5291721, “A preclinical secondary pharmacology resource illuminates target-adverse drug reaction associations of marketed drugs” (Nat Commun, 2023)

Columns and labels:
[1] = target: T1, 5-hydroxytryptamine receptor 1A (Homo sapiens, UniProt P08908); assay type: functional, cell-based
T1 sequence (P08908 whole entry): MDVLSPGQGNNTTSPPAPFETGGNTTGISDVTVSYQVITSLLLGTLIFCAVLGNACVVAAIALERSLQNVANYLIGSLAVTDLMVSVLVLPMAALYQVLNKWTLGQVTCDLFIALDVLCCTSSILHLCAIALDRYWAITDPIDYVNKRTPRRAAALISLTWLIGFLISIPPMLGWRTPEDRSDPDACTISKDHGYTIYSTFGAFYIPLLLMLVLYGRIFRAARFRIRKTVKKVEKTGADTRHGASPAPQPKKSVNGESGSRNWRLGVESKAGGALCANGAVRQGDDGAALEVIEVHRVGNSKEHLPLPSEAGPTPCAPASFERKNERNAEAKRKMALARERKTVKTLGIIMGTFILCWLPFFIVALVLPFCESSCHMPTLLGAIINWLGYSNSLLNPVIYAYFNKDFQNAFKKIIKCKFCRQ

[2] = target: T2, Alpha-2A adrenergic receptor (Homo sapiens, UniProt P08913)
T2 sequence (P08913 whole entry): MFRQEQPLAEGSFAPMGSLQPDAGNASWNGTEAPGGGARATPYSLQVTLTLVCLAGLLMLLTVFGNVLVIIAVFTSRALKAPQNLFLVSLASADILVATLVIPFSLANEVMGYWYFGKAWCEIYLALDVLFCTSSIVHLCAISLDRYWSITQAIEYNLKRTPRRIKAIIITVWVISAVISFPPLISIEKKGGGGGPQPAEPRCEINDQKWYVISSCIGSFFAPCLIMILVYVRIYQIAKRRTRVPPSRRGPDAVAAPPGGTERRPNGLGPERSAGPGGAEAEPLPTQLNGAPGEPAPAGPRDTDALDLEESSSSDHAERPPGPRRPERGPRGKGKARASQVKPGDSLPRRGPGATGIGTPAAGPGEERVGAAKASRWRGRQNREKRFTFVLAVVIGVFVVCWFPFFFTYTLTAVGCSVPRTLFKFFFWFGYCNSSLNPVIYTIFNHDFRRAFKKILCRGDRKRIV

Progesterone receptor = target: T3, Progesterone receptor (Homo sapiens, UniProt P06401); assay type: functional
T3 sequence (P06401 whole entry): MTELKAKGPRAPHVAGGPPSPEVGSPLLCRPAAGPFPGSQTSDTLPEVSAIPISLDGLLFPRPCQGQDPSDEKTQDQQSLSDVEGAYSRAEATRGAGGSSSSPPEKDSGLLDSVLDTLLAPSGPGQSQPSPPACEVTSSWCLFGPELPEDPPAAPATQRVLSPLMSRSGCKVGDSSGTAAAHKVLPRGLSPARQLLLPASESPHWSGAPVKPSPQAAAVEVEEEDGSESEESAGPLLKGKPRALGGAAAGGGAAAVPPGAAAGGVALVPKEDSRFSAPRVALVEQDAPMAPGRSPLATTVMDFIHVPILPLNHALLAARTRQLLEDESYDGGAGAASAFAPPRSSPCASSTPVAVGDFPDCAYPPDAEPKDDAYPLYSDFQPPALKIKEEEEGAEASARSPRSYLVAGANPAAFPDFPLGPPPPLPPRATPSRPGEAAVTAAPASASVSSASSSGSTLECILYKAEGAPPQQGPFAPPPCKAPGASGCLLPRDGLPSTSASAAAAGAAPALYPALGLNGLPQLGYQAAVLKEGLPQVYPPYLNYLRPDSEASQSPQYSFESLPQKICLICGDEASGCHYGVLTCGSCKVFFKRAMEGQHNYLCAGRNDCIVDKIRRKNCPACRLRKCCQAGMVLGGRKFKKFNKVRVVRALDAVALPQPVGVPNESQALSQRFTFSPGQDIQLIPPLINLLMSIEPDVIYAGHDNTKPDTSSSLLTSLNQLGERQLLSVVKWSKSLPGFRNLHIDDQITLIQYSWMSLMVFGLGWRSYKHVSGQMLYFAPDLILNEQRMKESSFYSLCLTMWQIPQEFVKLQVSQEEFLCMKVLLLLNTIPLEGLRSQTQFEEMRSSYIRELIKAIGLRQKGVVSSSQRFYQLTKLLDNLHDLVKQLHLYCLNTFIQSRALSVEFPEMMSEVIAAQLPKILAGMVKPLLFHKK

[3] = target: 3',5'-cyclic-AMP phosphodiesterase 4A (Homo sapiens, UniProt P27815); assay type: functional
[4] = target: Prostaglandin G/H synthase 1 (Homo sapiens, UniProt P23219); assay type: functional
[5] = target: Sodium-dependent dopamine transporter (Homo sapiens, UniProt Q01959)
[6] = target: T4, Amine oxidase [flavin-containing] A (Homo sapiens, UniProt P21397); assay type: functional
T4 sequence (P21397 whole entry): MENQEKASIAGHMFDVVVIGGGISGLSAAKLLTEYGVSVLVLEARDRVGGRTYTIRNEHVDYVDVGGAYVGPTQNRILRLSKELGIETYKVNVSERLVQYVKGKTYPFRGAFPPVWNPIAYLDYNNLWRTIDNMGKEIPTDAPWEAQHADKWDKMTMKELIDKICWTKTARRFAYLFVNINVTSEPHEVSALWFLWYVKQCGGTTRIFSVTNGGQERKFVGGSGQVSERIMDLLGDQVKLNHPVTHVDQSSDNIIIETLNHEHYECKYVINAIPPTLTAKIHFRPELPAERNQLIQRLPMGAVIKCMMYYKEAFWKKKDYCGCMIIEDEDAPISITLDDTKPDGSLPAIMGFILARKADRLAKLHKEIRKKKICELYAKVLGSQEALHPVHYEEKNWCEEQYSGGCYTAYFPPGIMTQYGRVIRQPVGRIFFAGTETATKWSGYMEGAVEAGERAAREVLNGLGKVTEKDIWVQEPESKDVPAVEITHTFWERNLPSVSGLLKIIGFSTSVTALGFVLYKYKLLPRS

Prothrombin = Prothrombin (Homo sapiens, UniProt P00734); assay type: functional
Acetylcholinesterase = Acetylcholinesterase (Homo sapiens, UniProt P22303); assay type: functional
[7] = target: Sodium-dependent noradrenaline transporter (Homo sapiens, UniProt P23975)
D(3) dopamine receptor = D(3) dopamine receptor (Homo sapiens, UniProt P35462)
D(1A) dopamine receptor = D(1A) dopamine receptor (Homo sapiens, UniProt P21728)
Further: assay procedure not described here.

Chain of D(1A) dopamine receptor (P21728 whole entry): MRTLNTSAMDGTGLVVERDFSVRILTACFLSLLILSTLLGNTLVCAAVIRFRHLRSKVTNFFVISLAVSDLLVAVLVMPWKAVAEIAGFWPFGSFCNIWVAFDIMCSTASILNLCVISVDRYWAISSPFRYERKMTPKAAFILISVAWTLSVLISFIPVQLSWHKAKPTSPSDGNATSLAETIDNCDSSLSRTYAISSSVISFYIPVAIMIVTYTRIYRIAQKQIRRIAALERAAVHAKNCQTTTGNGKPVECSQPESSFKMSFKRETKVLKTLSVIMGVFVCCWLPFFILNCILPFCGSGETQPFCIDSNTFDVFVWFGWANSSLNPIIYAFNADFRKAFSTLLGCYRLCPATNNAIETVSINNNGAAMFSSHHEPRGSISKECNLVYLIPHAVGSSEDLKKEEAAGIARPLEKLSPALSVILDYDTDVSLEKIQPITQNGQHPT
Chain of 3',5'-cyclic-AMP phosphodiesterase 4A (P27815 whole entry): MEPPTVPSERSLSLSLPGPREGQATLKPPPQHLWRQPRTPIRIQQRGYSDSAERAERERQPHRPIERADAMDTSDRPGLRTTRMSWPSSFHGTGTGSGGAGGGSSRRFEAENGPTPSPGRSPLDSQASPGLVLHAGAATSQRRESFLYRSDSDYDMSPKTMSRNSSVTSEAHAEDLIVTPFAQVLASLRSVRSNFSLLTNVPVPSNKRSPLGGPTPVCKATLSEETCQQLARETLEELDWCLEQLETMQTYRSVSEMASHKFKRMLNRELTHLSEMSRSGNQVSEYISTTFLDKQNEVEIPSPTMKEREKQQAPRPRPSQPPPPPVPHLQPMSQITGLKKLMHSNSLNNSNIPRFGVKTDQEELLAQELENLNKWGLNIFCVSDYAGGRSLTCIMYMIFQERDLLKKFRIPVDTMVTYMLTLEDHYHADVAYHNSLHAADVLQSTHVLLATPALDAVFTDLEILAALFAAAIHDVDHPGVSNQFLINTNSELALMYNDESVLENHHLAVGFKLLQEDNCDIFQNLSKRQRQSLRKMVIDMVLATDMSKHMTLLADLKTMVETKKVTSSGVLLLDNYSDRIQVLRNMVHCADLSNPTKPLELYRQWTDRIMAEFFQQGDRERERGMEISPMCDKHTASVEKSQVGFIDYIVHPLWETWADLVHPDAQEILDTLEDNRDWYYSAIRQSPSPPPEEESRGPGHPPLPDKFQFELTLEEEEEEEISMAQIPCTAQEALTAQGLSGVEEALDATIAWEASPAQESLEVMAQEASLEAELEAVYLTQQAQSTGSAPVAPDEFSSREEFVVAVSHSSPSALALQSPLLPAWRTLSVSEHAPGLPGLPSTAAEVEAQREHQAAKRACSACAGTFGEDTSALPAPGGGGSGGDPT
Chain of Sodium-dependent noradrenaline transporter (P23975 whole entry): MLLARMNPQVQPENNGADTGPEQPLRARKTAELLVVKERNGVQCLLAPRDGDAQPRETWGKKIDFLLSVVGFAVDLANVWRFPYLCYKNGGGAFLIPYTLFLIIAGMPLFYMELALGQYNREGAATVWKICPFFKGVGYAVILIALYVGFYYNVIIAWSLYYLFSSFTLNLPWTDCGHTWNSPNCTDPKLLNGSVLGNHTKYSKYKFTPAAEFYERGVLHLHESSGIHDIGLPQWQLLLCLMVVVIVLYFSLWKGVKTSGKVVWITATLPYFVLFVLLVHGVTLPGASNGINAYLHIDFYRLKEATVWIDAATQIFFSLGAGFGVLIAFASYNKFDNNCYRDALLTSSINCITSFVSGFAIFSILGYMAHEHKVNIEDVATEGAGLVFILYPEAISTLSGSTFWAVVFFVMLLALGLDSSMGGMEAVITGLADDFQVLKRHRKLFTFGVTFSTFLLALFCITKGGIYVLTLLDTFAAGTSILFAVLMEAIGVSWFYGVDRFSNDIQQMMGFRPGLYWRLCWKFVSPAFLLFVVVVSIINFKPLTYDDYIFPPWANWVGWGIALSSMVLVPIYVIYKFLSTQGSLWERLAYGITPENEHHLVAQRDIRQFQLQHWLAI
Chain of Prostaglandin G/H synthase 1 (P23219 whole entry): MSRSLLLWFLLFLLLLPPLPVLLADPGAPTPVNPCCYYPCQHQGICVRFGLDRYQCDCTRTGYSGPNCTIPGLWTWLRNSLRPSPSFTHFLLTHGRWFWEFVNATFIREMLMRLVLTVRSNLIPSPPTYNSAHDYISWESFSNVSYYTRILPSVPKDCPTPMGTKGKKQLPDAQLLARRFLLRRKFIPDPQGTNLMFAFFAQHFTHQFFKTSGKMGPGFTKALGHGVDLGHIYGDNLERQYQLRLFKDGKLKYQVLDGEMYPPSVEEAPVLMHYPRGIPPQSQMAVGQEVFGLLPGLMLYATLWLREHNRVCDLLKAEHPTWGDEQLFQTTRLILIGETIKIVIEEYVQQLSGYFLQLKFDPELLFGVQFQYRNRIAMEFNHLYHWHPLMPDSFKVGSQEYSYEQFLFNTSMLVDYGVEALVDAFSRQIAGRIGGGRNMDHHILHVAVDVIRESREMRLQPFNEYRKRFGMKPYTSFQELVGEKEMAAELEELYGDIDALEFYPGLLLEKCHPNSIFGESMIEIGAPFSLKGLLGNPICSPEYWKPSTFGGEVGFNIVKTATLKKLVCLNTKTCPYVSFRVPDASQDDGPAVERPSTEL
Chain of Sodium-dependent dopamine transporter (Q01959 whole entry): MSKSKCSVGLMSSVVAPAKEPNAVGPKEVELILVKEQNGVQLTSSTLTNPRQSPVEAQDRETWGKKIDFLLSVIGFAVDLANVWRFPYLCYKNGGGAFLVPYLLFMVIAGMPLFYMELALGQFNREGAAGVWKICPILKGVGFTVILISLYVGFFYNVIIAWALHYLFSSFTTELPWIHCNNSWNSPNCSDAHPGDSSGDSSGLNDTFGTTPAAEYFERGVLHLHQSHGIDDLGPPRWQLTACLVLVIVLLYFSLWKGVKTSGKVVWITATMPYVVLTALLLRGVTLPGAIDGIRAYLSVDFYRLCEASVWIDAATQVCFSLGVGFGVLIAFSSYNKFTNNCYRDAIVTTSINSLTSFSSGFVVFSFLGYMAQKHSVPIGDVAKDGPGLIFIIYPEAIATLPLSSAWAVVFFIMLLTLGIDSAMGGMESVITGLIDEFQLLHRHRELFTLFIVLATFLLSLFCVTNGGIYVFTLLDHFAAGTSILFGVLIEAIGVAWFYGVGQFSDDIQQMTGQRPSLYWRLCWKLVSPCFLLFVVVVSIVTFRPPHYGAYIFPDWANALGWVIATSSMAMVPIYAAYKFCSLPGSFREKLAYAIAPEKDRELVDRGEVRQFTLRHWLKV
Chain of Acetylcholinesterase (P22303 whole entry): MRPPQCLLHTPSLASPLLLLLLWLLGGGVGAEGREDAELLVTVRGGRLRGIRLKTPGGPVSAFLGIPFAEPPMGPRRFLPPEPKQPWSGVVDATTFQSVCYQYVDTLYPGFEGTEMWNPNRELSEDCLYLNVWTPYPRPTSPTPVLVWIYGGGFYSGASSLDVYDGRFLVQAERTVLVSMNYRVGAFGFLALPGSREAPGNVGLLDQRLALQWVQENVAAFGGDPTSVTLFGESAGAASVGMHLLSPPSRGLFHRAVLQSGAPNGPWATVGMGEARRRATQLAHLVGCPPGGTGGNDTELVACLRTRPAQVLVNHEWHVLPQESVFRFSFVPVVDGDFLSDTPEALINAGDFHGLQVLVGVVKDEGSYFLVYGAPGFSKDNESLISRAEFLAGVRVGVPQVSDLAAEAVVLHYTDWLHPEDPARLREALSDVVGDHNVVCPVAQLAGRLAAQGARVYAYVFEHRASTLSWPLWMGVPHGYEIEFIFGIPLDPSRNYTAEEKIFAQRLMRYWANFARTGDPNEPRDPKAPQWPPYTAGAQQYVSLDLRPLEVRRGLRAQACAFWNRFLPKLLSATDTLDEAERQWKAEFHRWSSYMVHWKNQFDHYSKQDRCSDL
Chain of D(3) dopamine receptor (P35462 whole entry): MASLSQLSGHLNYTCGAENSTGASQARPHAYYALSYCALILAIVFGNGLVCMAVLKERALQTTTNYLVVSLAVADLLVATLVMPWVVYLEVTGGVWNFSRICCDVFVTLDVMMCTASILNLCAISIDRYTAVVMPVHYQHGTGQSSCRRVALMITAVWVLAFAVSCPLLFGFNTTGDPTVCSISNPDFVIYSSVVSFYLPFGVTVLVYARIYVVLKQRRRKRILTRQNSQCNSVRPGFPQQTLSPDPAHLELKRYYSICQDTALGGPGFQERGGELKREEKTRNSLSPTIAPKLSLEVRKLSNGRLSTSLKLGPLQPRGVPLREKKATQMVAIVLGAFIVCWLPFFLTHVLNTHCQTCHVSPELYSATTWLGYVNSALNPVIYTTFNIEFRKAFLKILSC

Row | Compound | AC50 [1] | AC50 [2] | AC50 (Progesterone receptor) | AC50 [3] | AC50 [4] | AC50 [5] | AC50 [6] | AC50 (Prothrombin) | AC50 (Acetylcholinesterase) | AC50 [7] | AC50 (D(3) dopamine receptor) | AC50 (D(1A) dopamine receptor)
1 | CCCN(CCC)C(=O)Cc1c(-c2ccc(Cl)cc2)nc2ccc(Cl)cn12 [ALPIDEM] | > 30 µM | > 30 µM | > 30 µM | > 30 µM | > 30 µM | > 30 µM | > 30 µM | > 30 µM | > 30 µM | > 30 µM | 27.8 µM | > 30 µM
2 | CN1C(C(=O)Nc2ccccn2)=C(O)c2ccccc2S1(=O)=O [PIROXICAM] | > 10 µM | > 30 µM | > 10 µM | > 30 µM |  | > 30 µM | > 30 µM | > 30 µM | > 30 µM | > 30 µM | > 30 µM | > 30 µM
3 | COc1cc2nccc(Oc3ccc(NC(=O)C4(C(=O)Nc5ccc(F)cc5)CC4)cc3)c2cc1OC [CABOZANTINIB] | > 30 µM | > 30 µM | 24 µM | > 30 µM | > 30 µM | > 30 µM | 25.4 µM | > 30 µM | > 30 µM | > 30 µM | > 30 µM | 4.42 µM
4 | OC[C@H]1O[C@@](CO)(O[C@H]2O[C@H](CO)[C@@H](O)[C@H](O)[C@H]2O)[C@@H](O)[C@@H]1O [SUCROSE] | > 30 µM | > 30 µM | > 30 µM | > 30 µM | > 30 µM | > 30 µM | > 30 µM | > 30 µM | > 30 µM | > 30 µM | > 30 µM | > 30 µM
